Experiments:
Assay type in all cases: biochemical
DYRK1A = DYRK1A (Homo sapiens (Human), UniProt Q13627); test: In vitro DYRK1A inhibition assay
Procedure: (§1) Briefly, specific kinase/substrate pairs along with required cofactors were prepared in reaction buffer; 20 mM Hepes (pH 7.5), 10 mM MgCl2, 1 mM EGTA, 0.02% Brij35, 0.02 mg/ml BSA, 0.1 mM Na3VO4, 2 mM DTT, 1% DMSO. Compounds were delivered into the reaction, followed ˜20 min later by addition of a mixture of ATP (Sigma) and 33P ATP (PerkinElmer) to a final concentration of 10 μM. […] IC50 values and curve fits were obtained using Prism (GraphPad Software). Kinome tree representations were prepared using Kinome Mapper (http://www.reactionbiology.com/apps/kinome/mapper/Launch Kinome.htm).
The 2×DYRK1A/Ser/Thr 18 mixture was prepared in 50 mM HEPES pH 7.5, 0.01% BRIJ-35, 10 mM MgCl2, 1 mM EGTA.

LRRK2 = LRRK2 (Homo sapiens (Human), UniProt Q5S007); test: LRRK2 Kinase Assay; details: 10 μM ATP
Sequence of LRRK2 (Q5S007 970-2527): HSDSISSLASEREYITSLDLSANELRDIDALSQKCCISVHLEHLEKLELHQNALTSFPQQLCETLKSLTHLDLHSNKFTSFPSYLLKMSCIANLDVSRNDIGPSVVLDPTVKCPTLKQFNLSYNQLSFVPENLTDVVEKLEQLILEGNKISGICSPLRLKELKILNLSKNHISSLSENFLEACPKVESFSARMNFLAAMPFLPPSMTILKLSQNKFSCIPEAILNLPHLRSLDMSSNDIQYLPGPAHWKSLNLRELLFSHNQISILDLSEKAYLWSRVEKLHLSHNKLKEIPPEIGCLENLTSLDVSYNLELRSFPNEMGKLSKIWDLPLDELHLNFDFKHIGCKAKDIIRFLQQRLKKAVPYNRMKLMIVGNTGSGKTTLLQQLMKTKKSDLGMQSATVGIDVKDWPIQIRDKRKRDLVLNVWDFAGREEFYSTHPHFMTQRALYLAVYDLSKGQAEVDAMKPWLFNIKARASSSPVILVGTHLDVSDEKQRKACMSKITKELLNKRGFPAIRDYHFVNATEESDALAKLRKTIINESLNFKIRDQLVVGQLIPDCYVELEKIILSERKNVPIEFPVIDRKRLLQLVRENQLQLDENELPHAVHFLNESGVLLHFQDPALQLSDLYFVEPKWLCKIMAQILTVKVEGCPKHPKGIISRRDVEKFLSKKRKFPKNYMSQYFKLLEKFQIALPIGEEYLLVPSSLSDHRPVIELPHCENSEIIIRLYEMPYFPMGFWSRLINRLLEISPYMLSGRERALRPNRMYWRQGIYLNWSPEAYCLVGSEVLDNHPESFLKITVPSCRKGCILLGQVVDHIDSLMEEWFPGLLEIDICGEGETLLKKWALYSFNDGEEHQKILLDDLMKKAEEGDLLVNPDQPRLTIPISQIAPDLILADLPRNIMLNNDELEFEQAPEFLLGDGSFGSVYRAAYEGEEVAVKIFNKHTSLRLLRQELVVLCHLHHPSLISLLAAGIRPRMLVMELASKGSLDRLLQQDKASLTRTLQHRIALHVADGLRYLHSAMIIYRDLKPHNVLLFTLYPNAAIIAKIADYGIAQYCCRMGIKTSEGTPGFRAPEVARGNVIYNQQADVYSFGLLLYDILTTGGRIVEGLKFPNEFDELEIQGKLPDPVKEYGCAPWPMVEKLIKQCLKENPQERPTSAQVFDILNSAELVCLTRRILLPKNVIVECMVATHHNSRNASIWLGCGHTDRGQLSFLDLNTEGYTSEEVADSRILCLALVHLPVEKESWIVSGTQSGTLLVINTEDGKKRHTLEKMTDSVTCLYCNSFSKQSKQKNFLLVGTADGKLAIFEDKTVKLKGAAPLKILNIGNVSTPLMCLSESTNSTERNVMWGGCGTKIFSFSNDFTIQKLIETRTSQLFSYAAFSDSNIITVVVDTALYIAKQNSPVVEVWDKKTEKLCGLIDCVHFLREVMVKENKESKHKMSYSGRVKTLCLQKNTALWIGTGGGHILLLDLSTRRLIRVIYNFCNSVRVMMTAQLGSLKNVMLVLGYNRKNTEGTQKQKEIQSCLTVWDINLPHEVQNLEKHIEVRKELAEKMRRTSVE
Procedure: as §1
For the wild type LRRK the 2×LRRK2/ERM (LRRKtide) mixture was prepared in 50 mM Tris pH 8.5, 0.01% BRIJ-35, 10 mM MgCl2, 1 mM EGTA, 0.02% NaN3. […] After 1 hour Kinase Reaction incubation, 5 μL of Detection Mix was added.

LRRK2 G2019S = LRRK2 G2019S (Homo sapiens (Human), UniProt Q5S007, G2019S); test: LRRK2 G2019S Kinase Assay; details: 10 μM ATP
Sequence of LRRK2 G2019S (Q5S007 970-2527 G2019S): as the sequence (Q5S007 970-2527) above, with G1050S counted along it
Procedure: Procedure: Enzyme was incubated with substrate peptide in reaction buffer in the presence and absence of test compounds or Staurosporine. All additions were done on ice, followed by the addition of ATP mix. Wells were uniformly mixed using an Eppendorff plate shaker and incubated at 30° C. for 20 min, and stopped by the addition of 5 μl of 3% phosphoric acid. Volume was increased to 100 μl by adding 0.8% phosphoric acid which was then transferred to PC filter mats (Millipore), pre-equilibrated with 70% ethanol and water. Plates were washed thrice with 100 μl 0.8% phosphoric acid and dried for an hour at 60° C. 100 μl scintillation fluid was added into each well and reading taken in Perkin Elmer TOPCOUNT beta counter. […] A validation EC50 curve was generated by plotting CPM for each Staurosporine concentration on y-axis against the Log concentration of Staurosporine (nM) on the x-axis followed by a best fit curve through the points.
After 1 hour Kinase Reaction incubation, 5 μL of Detection Mix was added.

Row | IC50 (DYRK1A) [nM] | IC50 (LRRK2) [nM] | IC50 (LRRK2 G2019S) [nM] | SMILES
1 | > 1000 | > 500 | > 500 | Cc1n[nH]c2ncc(-c3cncc(N4CCC(F)(F)C4)n3)cc12 [Compound 56, 5-(6-(3,3-difluoropyrrolidin-1-yl)pyrazin-2-yl)-3-methyl-1H-pyrazolo[3,4-b]pyridine]
2 | > 500 | < 500 | < 500 | Cc1n[nH]c2ncc(-c3cncc(Nc4cccc(N5CCCC5=O)c4)n3)cc12 [Compound 94, 1-(3-((6-(3-methyl-1H-pyrazolo[3,4-b]pyridin-5-yl)pyrazin-2-yl)amino)phenyl)pyrrolidin-2-one]
3 | > 500 | > 500 | > 500 | Cc1n[nH]c2ncc(-c3cncc(OCCN4CCN(C)CC4)n3)cc12 [Compound 33, 5-(6-(2-(4-methylpiperazin-1-yl)ethoxy)pyrazin-2-yl)-3-methyl-1H-pyrazolo[3,4-b]pyridine]
4 | < 500 | < 500 | < 500 | CN(CC1CCOCC1)c1cncc(-c2cnc3[nH]cc(F)c3c2)n1 [Compound 145, 6-(3-fluoro-1H-pyrrolo[2,3-b]pyridin-5-yl)-N-methyl-N-((tetrahydro-2H-pyran-4-yl)methyl)pyrazin-2-amine]
5 | < 500 | < 500 | < 500 | CN1CCN(c2cncc(-c3cnc4[nH]ccc4c3)n2)CC1 [Compound 125, 5-(6-(4-methylpiperazin-1-yl)pyrazin-2-yl)-1H-pyrrolo[2,3-b]pyridine]
6 | > 1000 | > 500 | > 500 | Cc1n[nH]c2ncc(-c3cncc(C(=O)N4CCCCC4)n3)cc12 [Compound 77, (6-(3-methyl-1H-pyrazolo[3,4-b]pyridin-5-yl)pyrazin-2-yl)(piperidin-1-yl)metha-none]
7 | < 500 | < 500 | < 500 | OC1CCN(c2cncc(-c3cnc4[nH]ccc4c3)n2)CC1 [Compound 137, 1-(6-(1H-pyrrolo[2,3-b]pyridin-5-yl)pyrazin-2-yl)piperidin-4-ol]
8 | > 500 | > 500 | > 500 | FC1(F)CCN(c2cncc(-c3cnc4[nH]ccc4c3)n2)C1 [Compound 135, 5-(6-(3,3-difluoropyrrolidin-1-yl)pyrazin-2-yl)-1H-pyrrolo[2,3-b]pyridine]
9 | < 500 | < 500 | < 500 | Clc1c[nH]c2ncc(-c3cncc(N4CCOCC4)n3)cc12 [Compound 149, 4-(6-(3-chloro-1H-pyrrolo[2,3-b]pyridin-5-yl)pyrazin-2-yl)morpholine]
10 | < 500 | < 500 | < 500 | CN(CC1CCOCC1)c1cncc(-c2cnc3[nH]cc(Cl)c3c2)n1 [Compound 144, 6-(3-chloro-1H-pyrrolo[2,3-b]pyridin-5-yl)-N-methyl-N-((tetrahydro-2H-pyran-4-yl)methyl)pyrazin-2-amine]
11 | > 500 | > 500 | > 500 | Cc1n[nH]c2ncc(NC3CCCN(Cc4ccc(Cl)cc4)C3)cc12 (stereo not drawn) [Compound 27, N-(1-(4-Chlorobenzyl)piperidin-3-yl)-3-methyl-1H-pyrazolo[3,4-b]pyridid-5-amine]
12 | < 500 | < 500 | < 500 | Cc1n[nH]c2ncc(-c3cncc(NC4CCN(CCO)CC4)n3)cc12 [Compound 81, 2-(4-((6-(3-methyl-1H-pyrazolo[3,4-b]pyridin-5-yl)pyrazin-2-yl)amino)piperidin-1-yl)ethanol]
13 | > 500 | > 500 | > 500 | Cc1n[nH]c2ncc(-c3cncc(NC4CCN(C(C)C)CC4)n3)cc12 [Compound 87, N-(1-isopropylpiperidin-4-yl)-6-(3-methyl-1H-pyrazolo[3,4-b]pyridin-5-yl)pyrazin-2-amine]
14 | > 1000 | > 500 | > 500 | Cc1n[nH]c2ncc(-c3cncc(NC4CCN(C)C4)n3)cc12 (stereo not drawn) [Compound 51, 6-(3-methyl-1H-pyrazolo[3,4-b]pyridin-5-yl)-N-(1-methylpyrrolidin-3-yl)pyrazin-2-amine]
15 | > 500 | > 500 | > 500 | CN(C)CCNc1cncc(-c2cnc3[nH]ccc3c2)n1 [Compound 127, N1-(6-(1H-pyrrolo[2,3-b]pyridin-5-yl)pyrazin-2-yl)-N2,N2-dimethylethane-1,2-diamine]
16 | > 500 | > 500 | > 500 | Cc1n[nH]c2ncc(-c3cccc(NC4CCN(C)CC4)n3)cc12 [Compound 102, 6-(3-methyl-1H-pyrazolo[3,4-b]pyridin-5-yl)-N-(1-methylpiperidin-4-yl)pyridin-2-amine]
17 | > 500 | > 500 | > 500 | Cc1n[nH]c2ncc(NC3CCCN(Cc4ccc(Cl)c(Cl)c4)C3)cc12 (stereo not drawn) [Compound 28, N-(1-(3,4-Chlorobenzyl)piperidin-3-yl)-3-methyl-1H-pyrazolo[3,4-b]pyridid-5-amine]
18 | > 500 | < 500 | < 500 | Cc1n[nH]c2ncc(-c3cncc(N4CCN(CCO)CC4)n3)cc12 [Compound 59, 2-(4-(6-(3-methyl-1H-pyrazolo[3,4-b]pyridin-5-yl)pyrazin-2-yl)piperazin-1-yl)ethanol]
19 | > 500 | > 500 | > 500 | Cc1n[nH]c2ncc(NC3CCCN(Cc4ccc(F)cc4)C3)cc12 (stereo not drawn) [Compound 22, N-(1-(4-fluorobenzyl)piperidine-3-yl)-3-methyl-1H-pyrazolo[3,4-b]pyridine-5-amine]
20 | > 500 | > 500 | > 500 | Cc1n[nH]c2ncc(-c3cncc(NC(=O)C4CCN(C)CC4)n3)cc12 [Compound 39]
21 | < 500 | < 500 | < 500 | CN(CC1CCOCC1)c1cncc(-c2cnc3[nH]ccc3c2)n1 [Compound 143, N-methyl-6-(1H-pyrrolo[2,3-b]pyridin-5-yl)-N-((tetrahydro-2H-pyran-4-yl)methyl)pyrazin-2-amine]
22 | < 500 | < 500 | < 500 | CN1CCN(Cc2cccc(-c3cnc4[nH]ccc4c3)c2)CC1 [Compound 152, 5-(3-((4-methylpiperazin-1-yl)methyl)phenyl)-1H-pyrrolo[2,3-b]pyridine]
23 | > 500 | > 500 | > 500 | Cc1n[nH]c2ncc(-c3cncc(N4CCNC(=O)C4)n3)cc12 [Compound 83, 4-(6-(3-methyl-1H-pyrazolo[3,4-b]pyridin-5-yl)pyrazin-2-yl)piperazin-2-one]

— patent US9669028B2, “Substituted 5-(pyrazin-2-yl)-1H-pyrazolo [3, 4-B] pyridine and pyrazolo [3, 4-B] pyridine derivatives as protein kinase inhibitors” (Arrien Pharmaceuticals LLC, priority 2011, dated 2017)
